Assay results reported in patent US9420793B2, “Antiparasitic compounds” (Avista Pharma Solutions, priority 2015, dated 2016).

Columns and labels:
Aedes aegypti = assay: In vitro evaluation of ingestion activity against mosquitoes; settings: at 20 hours, compound in bovine blood, read-out: concentration at which active, mosquito ingestion
Description: In Vitro Evaluation of Ingestion Activity Against Mosquitoes (Aedes aegypti)
A solution of test compounds is added to bovine blood contained in a feeding chamber to reach the desired final concentration. Blood spiked with DMSO is prepared to serve as control. Adult female mosquitoes are introduced at the bottom of the chamber and allowed to feed on blood mixtures containing DMSO or test compounds for 30 minutes. Fully engorged mosquitoes are sorted into clean chambers after the blood meal and monitored for survival over 3 days. Replicates containing 10 mosquitoes are performed with each test compound concentration and results calculated as % mortality at specific time points.

[1] = test system: Dirofilaria immitis microfilariae; assay: Dirofilaria immitis microfilariae motility assay; settings: 72 h, read-out: concentration at which active, microfilariae motility

SMILES | minimal effective concentration (Aedes aegypti) | minimal effective concentration [1]
O=C(CCC(F)(F)F)N1CC2(C1)OCc1cc(C3=NSC(c4cc(Cl)c(F)c(Cl)c4)(C(F)(F)F)C3)ccc12 (centres unmarked) [Compound 10, 1-[6-[5-(3,5-dichloro-4-fluoro-phenyl)-5-(trifluoromethyl)-4H-isothiazol-3-yl]spiro[1H-isobenzofuran-3,3′-azetidine]-1′-yl]-4,4,4-trifluoro-butan-1-one] | < 1 µg/mL | –
CCNC(=O)N1CC2(C1)OCc1cc(C3=NSC(c4cc(Cl)c(F)c(Cl)c4)(C(F)(F)F)C3)ccc12 (centres unmarked) [Compound 16, 6-[5-(3,5-dichloro-4-fluoro-phenyl)-5-(trifluoromethyl)-4H-isothiazol-3-yl]-N-ethyl-spiro[1H-isobenzofuran-3,3′-azetidine]-1′-carboxamide] | < 1 µg/mL | < 10 µM
CNC(=O)N1CC2(C1)OCc1cc(C3=NSC(c4cc(Cl)c(F)c(Cl)c4)(C(F)(F)F)C3)ccc12 (centres unmarked) [Compound 41, 6-[5-(3,5-dichloro-4-fluoro-phenyl)-5-(trifluoromethyl)-4H-isothiazol-3-yl]-N-methyl-spiro[1H-isobenzofuran-3,3′-azetidine]-1′-carboxamide] | < 1 µg/mL | < 10 µM
Fc1c(Cl)cc(C2(C(F)(F)F)CC(c3ccc4c(c3)COC43CN(c4ncccn4)C3)=NS2)cc1Cl (centres unmarked) [Compound 40, 6-[5-(3,5-dichloro-4-fluoro-phenyl)-5-(trifluoromethyl)-4H-isothiazol-3-yl]-1′-pyrimidin-2-yl-spiro[1H-isobenzofuran-3,3′-azetidine]] | – | < 10 µM
N#CCC(=O)N1CC2(C1)OCc1cc(C3=NSC(c4cc(Cl)c(F)c(Cl)c4)(C(F)(F)F)C3)ccc12 (centres unmarked) [Compound 29, 3-[6-[5-(3,5-dichloro-4-fluoro-phenyl)-5-(trifluoromethyl)-4H-isothiazol-3-yl]spiro[1H-isobenzofuran-3,3′-azetidine]-1′-yl]-3-oxo-propanenitrile] | < 1 µg/mL | < 10 µM
CC(=O)N1CC2(C1)OCc1cc(C3=NSC(c4cc(Cl)c(F)c(Cl)c4)(C(F)(F)F)C3)ccc12 (centres unmarked) [Compound 27, 1-[6-[5-(3,5-dichloro-4-fluoro-phenyl)-5-(trifluoromethyl)-4H-isothiazol-3-yl]spiro[1H-isobenzofuran-3,3′-azetidine]-1′-yl]ethanone] | – | < 10 µM
O=C(Nc1ccccc1)N1CC2(C1)OCc1cc(C3=NSC(c4cc(Cl)c(F)c(Cl)c4)(C(F)(F)F)C3)ccc12 (centres unmarked) [Compound 17, 6-[5-(3,5-dichloro-4-fluoro-phenyl)-5-(trifluoromethyl)-4H-isothiazol-3-yl]-N-phenyl-spiro[1H-isobenzofuran-3,3′-azetidine]-1′-carboxamide] | < 1 µg/mL | < 10 µM
O=C(c1ccc(N2CCOCC2)cc1)N1CC2(C1)OCc1cc(C3=NSC(c4cc(Cl)c(F)c(Cl)c4)(C(F)(F)F)C3)ccc12 (centres unmarked) [Compound 13, [6-[5-(3,5-dichloro-4-fluoro-phenyl)-5-(trifluoromethyl)-4H-isothiazol-3-yl]spiro[1H-isobenzofuran-3,3′-azetidine]-1′-yl]-(4-morpholinophenyl)methanone] | – | < 10 µM
CCCCCC(=O)N1CC2(C1)OCc1cc(C3=NSC(c4cc(Cl)c(F)c(Cl)c4)(C(F)(F)F)C3)ccc12 (centres unmarked) [Compound 36, 1-[6-[5-(3,5-dichloro-4-fluoro-phenyl)-5-(trifluoromethyl)-4H-isothiazol-3-yl]spiro[1H-isobenzofuran-3,3′-azetidine]-1′-yl]hexan-1-one] | – | < 10 µM
O=C(N1CC2(C1)OCc1cc(C3=NSC(c4cc(Cl)c(F)c(Cl)c4)(C(F)(F)F)C3)ccc12)C(F)(F)C(F)(F)F (centres unmarked) [Compound 30, 1-[6-[5-(3,5-dichloro-4-fluoro-phenyl)-5-(trifluoromethyl)-4H-isothiazol-3-yl]spiro[1H-isobenzofuran-3,3′-azetidine]-1′-yl]-2,2,3,3,3-pentafluoro-propan-1-one] | < 1 µg/mL | < 10 µM
CCCCC(=O)N1CC2(C1)OCc1cc(C3=NSC(c4cc(Cl)c(F)c(Cl)c4)(C(F)(F)F)C3)ccc12 (centres unmarked) [Compound 35, 1-[6-[5-(3,5-dichloro-4-fluoro-phenyl)-5-(trifluoromethyl)-4H-isothiazol-3-yl]spiro[1H-isobenzofuran-3,3′-azetidine]-1′-yl]pentan-1-one] | < 1 µg/mL | < 10 µM
CCOCC(=O)N1CC2(C1)OCc1cc(C3=NSC(c4cc(Cl)c(F)c(Cl)c4)(C(F)(F)F)C3)ccc12 (centres unmarked) [Compound 24, 1-[6-[5-(3,5-dichloro-4-fluoro-phenyl)-5-(trifluoromethyl)-4H-isothiazol-3-yl]spiro[1H-isobenzofuran-3,3′-azetidine]-1′-yl]-2-ethoxy-ethanone] | – | < 10 µM
CCCCN1CC2(C1)OCc1cc(C3=NSC(c4cc(Cl)c(F)c(Cl)c4)(C(F)(F)F)C3)ccc12 (centres unmarked) [Compound 20, 1′-butyl-6-[5-(3,5-dichloro-4-fluoro-phenyl)-5-(trifluoromethyl)-4H-isothiazol-3-yl]spiro[1H-isobenzofuran-3,3′-azetidine]] | < 1 µg/mL | < 10 µM
CC(C)OCC(=O)N1CC2(C1)OCc1cc(C3=NSC(c4cc(Cl)c(F)c(Cl)c4)(C(F)(F)F)C3)ccc12 (centres unmarked) [Compound 23, 1-[6-[5-(3,5-dichloro-4-fluoro-phenyl)-5-(trifluoromethyl)-4H-isothiazol-3-yl]spiro[1H-isobenzofuran-3,3′-azetidine]-1′-yl]-2-isopropoxy-ethanone] | – | < 10 µM
CC(C)(C)CCN1CC2(C1)OCc1cc(C3=NSC(c4cc(Cl)c(F)c(Cl)c4)(C(F)(F)F)C3)ccc12 (centres unmarked) [Compound 21, 6-[5-(3,5-dichloro-4-fluoro-phenyl)-5-(trifluoromethyl)-4H-isothiazol-3-yl]-1′-(3,3-dimethylbutyl)spiro[1H-isobenzofuran-3,3′-azetidine]] | – | < 10 µM
CC(F)(F)C(=O)N1CC2(C1)OCc1cc(C3=NSC(c4cc(Cl)c(F)c(Cl)c4)(C(F)(F)F)C3)ccc12 (centres unmarked) [Compound 31, 1-[6-[5-(3,5-dichloro-4-fluoro-phenyl)-5-(trifluoromethyl)-4H-isothiazol-3-yl]spiro[1H-isobenzofuran-3,3′-azetidine]-1′-yl]-2,2-difluoro-propan-1-one] | – | < 10 µM
COCC(=O)N1CC2(C1)OCc1cc(C3=NSC(c4cc(Cl)c(F)c(Cl)c4)(C(F)(F)F)C3)ccc12 (centres unmarked) [Compound 22, 1-[6-[5-(3,5-dichloro-4-fluoro-phenyl)-5-(trifluoromethyl)-4H-isothiazol-3-yl]spiro[1H-isobenzofuran-3,3′-azetidine]-1′-yl]-2-methoxy-ethanone] | – | < 10 µM
CCC(=O)N1CC2(C1)OCc1cc(C3=NSC(c4cc(Cl)c(F)c(Cl)c4)(C(F)(F)F)C3)ccc12 (centres unmarked) [Compound 26, 1-[6-[5-(3,5-dichloro-4-fluoro-phenyl)-5-(trifluoromethyl)-4H-isothiazol-3-yl]spiro[1H-isobenzofuran-3,3′-azetidine]-1′-yl]propan-1-one] | – | < 10 µM
CC(C)C(=O)N1CC2(C1)OCc1cc(C3=NSC(c4cc(Cl)c(F)c(Cl)c4)(C(F)(F)F)C3)ccc12 (centres unmarked) [Compound 25, 1-[6-[5-(3,5-dichloro-4-fluoro-phenyl)-5-(trifluoromethyl)-4H-isothiazol-3-yl]spiro[1H-isobenzofuran-3,3′-azetidine]-1′-yl]-2-methyl-propan-1-one] | – | < 10 µM
